These are literature values, as cited in US20110045550A1, “Fission Yeast Expressing Cytochrome P450 Reductase” (priority 2007, published 2011).

Series [1] concerns the target human P-glycoprotein ATPases (ABCB1 subfamily) (Homo sapiens, UniProt P08183).
For series [2] the following is noted: pH=8.5.

Sequence of human P-glycoprotein ATPases (ABCB1 subfamily) (P08183 whole entry): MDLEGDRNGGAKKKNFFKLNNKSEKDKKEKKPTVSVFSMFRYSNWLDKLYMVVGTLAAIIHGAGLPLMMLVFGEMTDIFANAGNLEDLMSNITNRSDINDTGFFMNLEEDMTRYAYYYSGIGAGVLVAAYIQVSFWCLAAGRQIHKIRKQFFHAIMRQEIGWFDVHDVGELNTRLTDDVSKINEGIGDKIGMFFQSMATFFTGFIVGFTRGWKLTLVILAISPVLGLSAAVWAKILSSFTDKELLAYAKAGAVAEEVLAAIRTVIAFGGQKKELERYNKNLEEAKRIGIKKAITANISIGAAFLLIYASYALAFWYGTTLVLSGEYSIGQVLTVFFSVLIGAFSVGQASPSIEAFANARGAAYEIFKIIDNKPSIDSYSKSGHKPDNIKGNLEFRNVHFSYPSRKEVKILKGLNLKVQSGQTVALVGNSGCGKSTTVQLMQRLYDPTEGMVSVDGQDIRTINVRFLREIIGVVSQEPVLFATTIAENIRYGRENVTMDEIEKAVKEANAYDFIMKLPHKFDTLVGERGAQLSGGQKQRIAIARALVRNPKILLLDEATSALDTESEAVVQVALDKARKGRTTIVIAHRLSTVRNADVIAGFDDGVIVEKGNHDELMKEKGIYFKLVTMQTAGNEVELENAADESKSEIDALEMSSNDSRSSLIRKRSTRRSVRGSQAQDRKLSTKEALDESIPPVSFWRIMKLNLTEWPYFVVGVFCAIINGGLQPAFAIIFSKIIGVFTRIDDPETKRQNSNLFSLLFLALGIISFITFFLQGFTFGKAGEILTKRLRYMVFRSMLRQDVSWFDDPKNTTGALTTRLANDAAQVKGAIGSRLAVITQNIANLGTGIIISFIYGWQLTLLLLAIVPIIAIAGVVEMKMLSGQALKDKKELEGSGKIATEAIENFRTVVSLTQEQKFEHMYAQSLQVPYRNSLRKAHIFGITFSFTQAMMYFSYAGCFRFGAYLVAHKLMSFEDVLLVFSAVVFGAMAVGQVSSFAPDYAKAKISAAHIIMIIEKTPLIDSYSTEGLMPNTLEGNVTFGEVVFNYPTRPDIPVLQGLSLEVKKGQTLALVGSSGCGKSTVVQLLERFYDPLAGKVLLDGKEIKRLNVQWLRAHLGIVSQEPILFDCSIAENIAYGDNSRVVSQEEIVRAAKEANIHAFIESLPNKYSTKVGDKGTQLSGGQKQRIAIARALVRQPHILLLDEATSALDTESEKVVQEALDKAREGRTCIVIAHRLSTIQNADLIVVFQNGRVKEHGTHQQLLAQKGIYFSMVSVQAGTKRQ

As for `CC(NC(C)(C)C)C(=O)c1cccc(Cl)c1` (stereo not drawn) [bupropion], the “substrate for human P-glycoprotein” value in series [1] is on record as “weak substrate”.
Regarding `Cc1ncc2n1-c1ccc(Cl)cc1C(c1ccccc1F)=NC2` [midazolam], the “substrate for human P-glycoprotein” value in series [1] is reported as “very good substrate”. Further, the solubility entry in series [2] is reported as “around 150 μM”.
